Experimental data as given in publication PMC3930514, “Deletion of Ubiquitin Fold Modifier Protein Ufm1 Processing Peptidase Ufsp in L. donovani Abolishes Ufm1 Processing and Alters Pathogenesis” (PLoS Neglected Tropical Diseases, 2014).

Tests used:
[1] = target: T1, LdUfsp (recombinant Ufsp, rLdUfsp) (Leishmania donovani, UniProt E9BRI1); assay: FRET cleavage assay with YFP-Ufm1-ECFP; format: biochemical; details: 0.1, 1, 10 µg/ml; 250 nM substrate; pH 7.5, 37 °C, 60 min
T1 construct: gene LdCL_340047700; partial ORF 427-1518 bp (about codons 143-506) in pEXP5-CT-Topo, E. coli BL21-pLysS, native purification; 43 and 39 kDa bands; L. infantum homolog is LinJ.34.3830
T1 sequence (E9BRI1 entry or part of it): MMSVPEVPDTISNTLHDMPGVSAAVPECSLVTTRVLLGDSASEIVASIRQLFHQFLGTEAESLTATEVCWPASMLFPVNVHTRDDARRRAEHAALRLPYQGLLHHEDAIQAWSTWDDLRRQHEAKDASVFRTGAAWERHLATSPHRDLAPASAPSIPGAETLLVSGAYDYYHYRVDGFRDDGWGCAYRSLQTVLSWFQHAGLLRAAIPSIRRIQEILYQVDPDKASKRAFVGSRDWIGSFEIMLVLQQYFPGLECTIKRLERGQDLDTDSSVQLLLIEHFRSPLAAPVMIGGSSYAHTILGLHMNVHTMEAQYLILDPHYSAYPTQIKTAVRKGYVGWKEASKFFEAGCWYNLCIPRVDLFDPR

[2] = target: T1, LdUfsp (recombinant Ufsp, rLdUfsp); assay: biolayer interferometry (Octet, streptavidin sensor); format: binding; details: biotinylated protein immobilised

C[C@@H]1[C@H](O)[C@@H](C)/C=C/C=C/C=C/C=C/C=C/C=C/C=C/[C@H](O[C@@H]2O[C@H](C)[C@@H](O)[C@H](N)[C@@H]2O)C[C@@H]2O[C@](O)(C[C@@H](O)C[C@@H](O)[C@H](O)CC[C@@H](O)C[C@@H](O)CC(=O)O[C@H]1C)C[C@H](O)[C@H]2C(=O)O [Amphotericin B]
% Ufm1 processing activity (Δ530, % of 20 mM N-ethyl maleimide) [1]: Amphotericin B showed inhibitory effects on the Ufm1 processing activity
biolayer interferometry (Octet, streptavidin sensor) [2]: Results showed that Amphotericin B can bind to the biotinylated Ufsp protein
